According to patent US10251871B2, “Compositions and methods for treatment of edema” (Memorial Sloan Kettering Cancer Center, priority 2015, dated 2019):

How the values were obtained:
[1] = test system: ear skin lymphatic vessels (LYVE-1+); assay: Ear punch wound model of cutaneous lymphangiogenesis; assay type: in vivo, mice; conditions: topical tacrolimus for 4 weeks, vs control ointment
Excerpt: We also studied lymphangiogenesis during wound healing using an ear punch wound model and applying topical tacrolimus or control ointment for 4 weeks. […] To test the possibility of direct lymphangiogenic effects of tacrolimus, we applied tacrolimus to unwounded mouse ears for 4 weeks, and then performed whole mount confocal imaging of lymphatic vessels. We observed no increase in lymphangiogenesis in this uninjured, non-inflamed setting (FIG. 16). […] A corneal lymphangiogenesis assay was performed as previously reported. Cursiefen et al., Cornea 25:443-447 (2006). Briefly, 10-0 nylon sutures (Ethicon, Cincinnati, Ohio) were placed in the cornea at […]. Beginning immediately after suture placement, animals were treated with systemic tacrolimus or vehicle control daily for two weeks, followed by analysis using confocal microscopy (Leica Microsystems, Weitziar, Germany). […] Cutaneous lymphangiogenesis was assessed using an ear punch wound model as previously reported. […] Tile-scan images were obtained using a confocal microscope (Leica Microsystems, Weitziar, Germany) and skin within 400 μm of the wound edge was analyzed using Metamorph software (Molecular Devices, Sunnyvale, Calif.). Standardized (200 μm×200 μm) fields were analyzed for the number of branch points present per unit area by two blinded reviewers.

[2] = reference range; cited from earlier work
[3] = test system: mouse tail model of lymphedema; assay: Mouse tail model of lymphedema (tail volume, histology, immunostaining, lymphoscintigraphy, NIR imaging, PCR, ELISA); assay type: in vivo, C57BL/6J mice
[4] = test system: popliteal lymph node dissection (PLND) mouse model; assay: Popliteal lymph node dissection (PLND) hind limb model of lymphatic injury; conditions: 4 weeks after PLND
Excerpt: To enable analysis of the lymphatic collecting vessel pumping capacity we utilized a previously described mouse popliteal lymphadenectomy model. […] Briefly, the hind limb collecting vessels and popliteal lymph nodes were identified and the lymph nodes were excised with the popliteal fat pad. Beginning 2 weeks after surgery, animals were randomized to treatment with either 0.1% topical tacrolimus or vehicle control (petroleum jelly) twice daily for 2 weeks.
Near infrared imaging (NIR) was performed using a modification of previously published results. […] Briefly, 15 μl (0.15 mg mL^−1) indocyanine green (ICG, Sigma-Aldrich, Saint Louis, Mo.) was injected intradermally in the web space of the dorsal hind limb and visualized using an EVOS EMCCD camera (Life Technologies, Carlsbad, Calif.) with a LED light source (CoolLED, Andover, United Kingdom). Static/video images were obtained using a Zeiss V12 Stereolumar microscope (Caliper Life Sciences, Hopkinton, Mass.) and lymphatic pumping function was analyzed using Fiji software (NIH, Bethesda, Md.) by identifying a region-of-interest over the dominant collecting vessel of the leg and subtracting the background fluorescent intensity plotted over time.
Immunohistochemical staining was performed using our published methods. […] Briefly, tissues were fixed in 4% paraformaldehyde at 4° C., decalcified in 5% sodium EDTA (Santa Cruz Biotechnology, Dallas, Tex.), embedded in paraffin, and sectioned at 5 micrometers. Cut sections were rehydrated and heat-mediated antigen unmasking was performed using 90° C. sodium citrate (Sigma-Aldrich). Non-specific binding was blocked with 2% BSA/20% animal serum. Tissues were incubated overnight with primary antibody at 4° C. Primary antibodies used for immunohistochemical stains included goat anti-mouse LYVE-1, rat anti-mouse CD45, rabbit anti-mouse CD4, and rat anti-mouse F4/80 (all from R&D, Minneapolis, Minn.), rabbit anti-mouse CD3 (from Dako, Carpinteria, Calif.), Cy3-conjugated mouse anti-αSMA (from Sigma-Aldrich), rabbit anti-human IFN-γ, rabbit anti-mouse TGF-β1, rabbit anti-mouse p-SMAD3, rabbit anti-mouse collagen I, rabbit-anti-mouse iNOS, and hamster-anti-mouse podoplanin, rabbit anti-mouse HMGB-1 and HSP-70 (all from ABCAM, Cambridge, Mass.).
Immunofluorescence staining was performed using AlexaFluor fluorophore-conjugated secondary antibodies (Life Technologies, Norwalk, Conn.). Images were scanned using Mirax imaging software (Carl Zeiss).

unwounded mouse ears = assay: Unwounded mouse ears, whole mount imaging of lymphatic vessels; assay type: in vivo, mice; conditions: tacrolimus applied to unwounded ears for 4 weeks
Excerpt: We also studied lymphangiogenesis during wound healing using an ear punch wound model and applying topical tacrolimus or control ointment for 4 weeks. […] To test the possibility of direct lymphangiogenic effects of tacrolimus, we applied tacrolimus to unwounded mouse ears for 4 weeks, and then performed whole mount confocal imaging of lymphatic vessels. We observed no increase in lymphangiogenesis in this uninjured, non-inflamed setting (FIG. 16).

[5] = test system: circulating blood T cells; assay: Flow cytometry of peripheral blood T cells; assay type: in vivo, mice
Experimental: Flow cytometry was performed on peripheral blood samples as previously reported. Zampell et al., PLoS ONE 7:e49940 (2012). Briefly, erythrocytes were lysed with RBC lysis buffer (Ebioscience, San Diego, Calif.) followed by staining with fluorophore-conjugated antibodies (CD45, CD3, and CD4; all from Biolegend, San Diego, Calif.) and analysis with a FACSCalibur flow cytometer (BD Biosciences, Franklin Lakes, N.J.) using FlowJo software (Tree Star, Ashland, Oreg.).

[6] = test system: hind limb collecting lymphatics of non-operated animals; assay: Non-operated (sham) hind limb, NIR lymphatic imaging; assay type: in vivo, mice; conditions: tacrolimus, non-operated animals (anesthesia only, no surgery)
Excerpt: Upper panels are representative images of NIR lymphatic images of the hind limb lymphatics in sham operated mice (i.e., anesthesia without incision or PLND) following treatment with control or topical tacrolimus for 2 weeks. Quantification of collecting lymphatic vessel pulsation frequency following 3 or 14 days of treatment with tacrolimus is shown below.
This is important since previous studies have shown that perilymphatic iNOS expression is an important regulator of collecting lymphatic pumping capacity. Liao et al., Proc. Natl. Acad. Sci. USA 108:18784-18789 (2011).

[7] = topical 0.1% tacrolimus twice daily, early treatment (from 2 weeks after surgery for 4 weeks), vs vehicle control
[8] = topical 0.1% tacrolimus twice daily, late treatment (from 6 weeks after surgery for 3 weeks), vs vehicle control
[9] = topical 0.1% tacrolimus, early and late treatment, vs control
[10] = topical 0.1% tacrolimus, early treatment, qPCR 6 weeks after injury, vs control
[11] = topical 0.1% tacrolimus, early treatment, vs control
[12] = topical 0.1% tacrolimus, late treatment, vs control
[13] = topical 0.1% tacrolimus twice daily for 2 weeks from 2 weeks after PLND, vs vehicle control
[14] = topical 0.1% tacrolimus, vs control
[15] = topical 0.1% tacrolimus, vs vehicle treated controls
[16] = topical tacrolimus, vs vehicle treated controls

- blood T cells (CD3+) ([5]; systemic tacrolimus 4 mg kg^−1 IP daily, vs vehicle control): significant reduction
- circulating CD4+ cells [5, 16]: no changes
- circulating blood T cells (CD3+) [5, 16]: no changes
SMILES: C=CC[C@@H]1/C=C(\C)C[C@H](C)C[C@H](OC)[C@H]2O[C@@](O)(C(=O)C(=O)N3CCCC[C@H]3C(=O)O[C@H](/C(C)=C/[C@@H]3CC[C@@H](O)[C@H](OC)C3)[C@H](C)[C@@H](O)CC1=O)[C@H](C)C[C@@H]2OC [tacrolimus]
- lymphatic vessel branching in ear skin adjacent to the wound [1]: significantly increased
- lymphatic vessel density in ear skin adjacent to the wound [1]: significantly increased
- known therapeutic immunosuppressive levels achieved with systemic administration [2]: 5 to 15 ng/mL
- decrease in soft tissue thickness [3, 7]: ~50%
- decrease in tail volume [3, 7]: 95%
- soft tissue thickness [3, 8]: highly effective in decreasing
- tail volume [3, 8]: highly effective in decreasing
- Scar index (picrosirius red, ratio of collagen I/III) [3, 9]: markedly decreased
- cellular expression of phosphorylated SMAD3 (pSMAD-3) [3, 9]: markedly decreased
- dermal and subcutaneous type I collagen deposition [3, 9]: markedly decreased
- expression of TGF-β1 (immunofluorescence) [3, 9]: markedly decreased
- NIR (ICG) imaging: transport across the tail wound ([3]; topical 0.1% tacrolimus, early treatment, 6 weeks after lymphatic ligation): rapid transport of interstitial fluid proximally across the tail wound
- IFN-γ mRNA expression in tail tissue [3, 10]: significant decrease
- TGF-β1 mRNA expression in tail tissue [3, 10]: significant decrease
- VEGF-C mRNA expression in tail tissue [3, 10]: no differences
- increase in decay adjusted 99mTc uptake of the sacral lymph nodes [3, 11]: more than 6 fold
- increase in newly formed lymphatic vessels (LYVE-1) bridging the zone of lymphatic injury [3, 11]: 189%
- reduction of CD45+ cells (leukocytes) infiltrating dermis and subcutaneous fat [3, 11]: 56%
- reduction of IFN-γ-producing cells [3, 11]: 54%
- reduction of infiltrating CD3+ cells [3, 11]: 53%
- reduction of infiltrating CD4+ cells [3, 11]: 78%
- reduction of soft tissue infiltration of macrophages (F4/80+ cells) [3, 11]: 86%
- increase in newly formed lymphatic vessels (LYVE-1) bridging the zone of lymphatic injury [3, 12]: 106%
- reduction of CD45+ cells (leukocytes) infiltrating dermis and subcutaneous fat [3, 12]: 49%
- reduction of IFN-γ-producing cells [3, 12]: 57%
- reduction of infiltrating CD3+ cells [3, 12]: 49%
- reduction of infiltrating CD4+ cells [3, 12]: 71%
- reduction of soft tissue infiltration of macrophages (F4/80+ cells) [3, 12]: 73%
- increase in 99mTc nodal uptake ([3]; topical 0.1% tacrolimus, late treatment, vs control, did not reach statistical significance): 2 fold
- increase in collecting lymphatic packet frequency [4, 13]: > 2 fold
- lymphatic leakiness and dermal back flow of ICG [4, 13]: markedly decreased
- collateral lymphatics draining towards the inguinal lymph node ([4]; topical 0.1% tacrolimus, NIR imaging and IF staining, vs control): significantly more
- luminal area of hind limb collectors [4, 14]: no differences
- number of alpha smooth muscles surrounding hind limb collecting lymphatics [4, 14]: no differences
- reduction in perilymphatic CD4+ cells [4, 15]: 56%
- reduction in perilymphatic CD45+ cells [4, 15]: 39%
- reduction in perilymphatic F4/80+ cells [4, 15]: 36%
- reduction in the number of perilymphatic iNOS-expressing cells [4, 15]: 42%
- lymphangiogenesis in uninjured, non-inflamed ear (unwounded mouse ears): no increase
- lymphatic contraction frequency [6]: did not increase
- perilymphatic accumulation of inflammatory cells [6]: did not increase
